Measured values as given in PMC4658133, “Intrinsic Levanase Activity of Bacillus subtilis 168 Levansucrase (SacB)” (PLoS ONE, 2015).

Target: T1, levansucrase (SacB) (Bacillus subtilis, UniProt P05655)
T1 construct: expressed in Escherichia coli BL21, ion exchange purified
T1 sequence (P05655 30-473): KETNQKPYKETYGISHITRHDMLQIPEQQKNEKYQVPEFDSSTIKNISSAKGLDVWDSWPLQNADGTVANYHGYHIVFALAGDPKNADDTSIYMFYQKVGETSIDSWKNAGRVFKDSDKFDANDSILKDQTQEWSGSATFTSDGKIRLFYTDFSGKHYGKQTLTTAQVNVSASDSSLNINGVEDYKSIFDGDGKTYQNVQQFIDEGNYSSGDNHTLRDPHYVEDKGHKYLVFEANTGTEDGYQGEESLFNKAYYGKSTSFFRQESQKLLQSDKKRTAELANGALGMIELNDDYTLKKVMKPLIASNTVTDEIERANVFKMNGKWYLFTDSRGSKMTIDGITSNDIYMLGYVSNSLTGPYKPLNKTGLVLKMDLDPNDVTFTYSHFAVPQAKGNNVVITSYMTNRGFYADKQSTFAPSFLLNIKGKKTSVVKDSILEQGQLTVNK
Assay: HPAEC-PAD product profile after […] h
Assay type: biochemical
Conditions: fructosyl acceptor, 127 mM; donor 2.5 mM LMw levan; 50 mM sodium acetate, 1 mM CaCl2, pH 6.0

Structure (SMILES): OC[C@H]1OC(O)[C@H](O)[C@@H](O)[C@@H]1O (stereo partly shown) [glucose]
- HPAEC-PAD product profile after 5 h: These profile results from the fructosyl transfer from levan to glucose
